{"source": "patent US6291676A", "about": "“Water-soluble derivatives of camptothecin/homocamptothecin” (priority 2000, dated 2001)", "key": {"topoisomerase I [1]": {"system": "topoisomerase I", "experiment": "Reversal of topoisomerase I cleavable complexes after NaCl addition", "type": "biochemical", "settings": "after 0.35M NaCl; for stability of cleavable complexes: relative to camptothecin and SN-38", "source_text": "(§1) Evaluation of the Relative Abilities of the Novel Polyamine Camptothecin Analogs to Induce Topoisomerase I Mediated DNA Single Strand Breaks. We have evaluated the abilities of the novel compounds of the present invention to inhibit the topoisomerase I enzyme. In these experiments the oligonucleotide was labeled at the 3'-end of the upper (scissile) strand with 32P-α-cordycepin and terminal transferase (Pommier, Y., Kohlhagen, G., Kohn, F., Leteurtre, F., Wani, M. C., and Wall, M. E. Proc. Natl. Acad. Sci. U.S.A. 92:8861-8865, 1995). Topoisomerase I (Top1) cleavage generates a 23mer that can be easily detected by electrophoresis and quantitated by Phosphorimager analysis. Tanizawa et al. (Tanizawa, A., Kohn, K. W., Kohlhagen, G., Leteurtre, F., and Pommier, Y. Biochemistry […]:7200-7206, 1995) have previously shown that camptothecin derivatives differ in the manner in which they stabilize the top1 cleavable complexes that they induce. The novel polyamine camptothecins of the present invention were compared in this assay. 0.35M NaCl was added to force top 1-mediated DNA religation and DNA cleavage was measured at various times after NaCl addition. FIG. 9 is a typical phosphoimager picture showing the timecourse of the effects of various camptothecins on the relaxation of DNA in the presence of topoisomerase I. Topoisomerase I-mediated cleavage generates DNA fragments that can be readily detected by electrophoresis and quantitated by phosphorimager analysis."}, "[2]": {"experiment": "Excited-state lifetime of camptothecin", "type": "physicochemical", "settings": "37° C", "description": "We have examined the excited-state lifetime values of camptothecin in PBS, glycerol, and methanol at 37° C. The lifetime values were determined to be 4.7 ns, 3.8 ns, and 3.5 ns, respectively."}, "[3]": {"settings": "cited from earlier work"}, "[4]": {"experiment": "Fluorescence anisotropy titration: association with electroneutral DMPC vesicles", "type": "physicochemical", "settings": "PBS buffer, pH 7.4, physiological temperature, DMPC", "description": "(§2) Vesicle Preparation. Small unilamellar vesicle (SUV) suspensions were prepared the day of an experiment by the method of Burke et al. (T. G. Burke, A. K. Mishra, M. C. Wani, and M. E. Wall, Lipid Bilayer Partitioning and Stability of Camptothecin Drugs, Biochem., 32(20), 5352 (1993)). Briefly, stock lipid suspensions containing 200 mg/mL lipid in phosphate buffered saline (PBS, pH 7.4) were prepared by Vortex mixing for 5-10 min above the TM of the lipid. The lipid dispersions were then sonicated using a bath-type sonicator (Laboratory Supplies Co., Hicksville, N.Y.) for 3-4 h until they became optically clear. […] Each type of vesicle suspension was annealed for 30 min at 37° C. and then used in an experiment.\n(§3) Fluorescence Instrumentation. Steady-state fluorescence measurements were obtained on a SLM Model 9850 spectrofluorometer with a thermostated cuvette compartment. This instrument was interfaced with an IBM PS/2 model 55 SX computer. Excitation and emission spectra were recorded with an excitation resolution of 8 nm and an emission resolution of 4 nm. In all cases spectra were corrected for background fluorescence and scatter from unlabeled lipids or from solvents by subtraction of the spectrum of a blank. Steady-state fluorescence intensity measurements were made in the absence of polarizers. Steady-state anisotropy (a) measurements were determined with the instrument in the \"T-format\" for simultaneous measurement of two polarized intensities. […] The anisotropy was calculated from a =(IVV -GIVH)/(IVV +2GIVH), where G=IHV /IHH and the subscripts refer to vertical and horizontal orientations of the excitation and emission polarizers, respectively.\n(§4) Anisotropy measurements for camptothecins were conducted using exciting light in the range of 370 nm to 400 nm and long pass filters on each emission channel in order to isolate the drug's fluorescence signal from background scatter and/or residual fluorescence. […] The combination of exciting light and emission filters allowed us to adequately separate fluorescence from background signal. […]"}, "[5]": {"settings": "aqueous medium; cited from earlier work"}, "[6]": {"experiment": "Fluorescence anisotropy titration: association with negatively-charged DMPG vesicles", "type": "physicochemical", "settings": "PBS buffer, pH 7.4, physiological temperature, DMPG", "description": "as §2, §3, §4"}, "topoisomerase I [7]": {"system": "topoisomerase I", "experiment": "Topoisomerase I mediated DNA cleavage (cleavable complex induction)", "type": "biochemical", "settings": "for dose response with respect to inducing DNA fragmentation: FIG. 10; for distribution of cleavage sites vs camptothecin or SN-38 / induction of cleavable complex formation: topoisomerase I; for induction of cleavable complex formation: 3'-32P-labeled oligonucleotide", "source_text": "as §1\nFIG. 10 is a phosphoimager picture showing the dose response of various camptothecin compounds described in the present invention on the relaxation of DNA in the presence of topoisomerase I. Topoisomerase I-mediated cleavage generates DNA fragments that can be readily detected by electrophoresis and quantitated by phosphorimager analysis as shown.\nFIG. 11 contains a phosphoimager picture (bottom figure) showing the dose response effects of several of the novel polyamine camptothecins of the current invention on the relaxation of DNA in the presence of topoisomerase I. Topoisomerase I-mediated cleavage generates DNA fragments that can be readily detected by electrophoresis and quantitated by phosphorimager analysis (top figure)."}}, "note": "Where two headings read alike, the source gives them in different places."}
{"molecule": "CCc1c2c(nc3ccc(O)cc13)-c1cc3c(c(=O)n1C2)COC(=O)[C@]3(O)CC", "note": "[SN-38, 7-ethyl-10-hydroxycamptothecin, reference compound]", "values": [{"measurement": "reversal of cleavable complexes", "setting": "topoisomerase I [1]; compared with camptothecin", "result": "reversed more slowly than those induced by camptothecin"}]}
{"molecule": "CC[C@@]1(O)C(=O)OCc2c1cc1n(c2=O)Cc2cc3ccccc3nc2-1", "note": "[Camptothecin]", "values": [{"measurement": "average excited-state lifetime, membrane-bound drug", "setting": "[2]; DMPC bilayers", "result": 3.7, "unit": "ns"}, {"measurement": "excited-state lifetime", "setting": "[2]; PBS", "result": 4.7, "unit": "ns"}, {"measurement": "excited-state lifetime", "setting": "[2]; glycerol", "result": 3.8, "unit": "ns"}, {"measurement": "excited-state lifetime", "setting": "[2]; methanol", "result": 3.5, "unit": "ns"}, {"measurement": "enhancement in the anisotropy value upon binding to vesicles", "setting": "[3]; vesicles of either DMPC or DMPG", "result": 21, "unit": "fold"}, {"measurement": "Overall association constant KDMPC", "setting": "[4]", "result": 100, "unit": "M⁻¹"}, {"measurement": "half-life of lactone ring hydrolysis", "setting": "[5]", "result": "approximately 20 min"}, {"measurement": "Overall association constant KDMPG", "setting": "[6]", "result": 100, "unit": "M⁻¹"}]}
{"molecule": "CC[C@@]1(O)C(=O)OCc2c1cc1n(c2=O)Cc2c-1nc1ccccc1c2CCCCCN=[N+]=[N-]", "note": "[7-(5-azidopentyl)]", "values": [{"measurement": "dose response with respect to inducing DNA fragmentation", "setting": "topoisomerase I [7]", "result": "particularly good dose response"}]}
{"molecule": "CC[C@@]1(O)C(=O)OCc2c1cc1n(c2=O)Cc2c-1nc1ccccc1c2CCN=[N+]=[N-]", "note": "[7-(2-azidoethyl)]", "values": [{"measurement": "dose response with respect to inducing DNA fragmentation", "setting": "topoisomerase I [7]", "result": "particularly good dose response"}]}
{"molecule": "CC[C@@]1(O)C(=O)OCc2c1cc1n(c2=O)Cc2c-1nc1ccccc1c2CCCNC(=N)N", "note": "[compound #8]", "values": [{"measurement": "distribution of cleavage sites vs camptothecin or SN-38", "setting": "topoisomerase I [7]", "result": "comparable to those generated by camptothecin or 7-ethyl-10-hydroxycamptothecin (SN-38)"}, {"measurement": "induction of cleavable complex formation", "setting": "topoisomerase I [7]", "result": "good inducers of cleavable complex formation"}, {"measurement": "stability of cleavable complexes", "setting": "topoisomerase I [1]", "result": "intermediate stabilities between camptothecin and SN-38"}]}
{"molecule": "CC[C@@]1(O)C(=O)OCc2c1cc1n(c2=O)Cc2c-1nc1ccccc1c2CCNC(=N)N", "note": "[compound #9]", "values": [{"measurement": "distribution of cleavage sites vs camptothecin or SN-38", "setting": "topoisomerase I [7]", "result": "comparable to those generated by camptothecin or 7-ethyl-10-hydroxycamptothecin (SN-38)"}, {"measurement": "induction of cleavable complex formation", "setting": "topoisomerase I [7]", "result": "good inducers of cleavable complex formation"}, {"measurement": "stability of cleavable complexes", "setting": "topoisomerase I [1]", "result": "intermediate stabilities between camptothecin and SN-38"}]}
{"molecule": "CC[C@@]1(O)C(=O)OCc2c1cc1n(c2=O)Cc2cc3c(CN(C)C)c(O)ccc3nc2-1", "note": "[topotecan]", "values": [{"measurement": "steady-state fluorescence anisotropy (a)", "setting": "[3]; PBS", "result": 0.008}, {"measurement": "increase of anisotropy value vs PBS", "setting": "[3]; glycerol", "result": 40, "unit": "fold"}, {"measurement": "increase of anisotropy value vs PBS", "setting": "[3]; octanol", "result": 9, "unit": "fold"}]}
